Active and inactive are the calls of the source. The rule behind the calls is not given here.
Legend:
Salmonella enterica = test: Inhibition of Salmonella enterica HPPK at 50 uM incubated for 20 mins in presence of ATP by Kinase Glo luminescence assay
Escherichia coli = test: Inhibition of Escherichia coli HPPK at 50 uM incubated for 20 mins in presence of ATP by Kinase Glo luminescence assay
[1] = Binding affinity to Escherichia coli HPPK
[2] = Inhibition of Escherichia coli HPPK
[3] = Inhibition of Salmonella enterica HPPK incubated for 20 mins in presence of ATP by Kinase Glo luminescence assay
[4] = Binding affinity to Salmonella enterica HPPK
[5] = Inhibition of Salmonella enterica HPPK

Compound: O=C1CC(C(=O)Nc2cccc3ccccc23)C2(CCCCC2)O1 (stereo not given)
- inhibition activity call (active/inactive) (Salmonella enterica): Active
- inhibition (Escherichia coli): Active

Compound: CC1(C)Nc2nc(N)[nH]c(=O)c2N=C1C(=O)NCCN1CCC(SC[C@H]2O[C@@H](n3cnc4c(N)ncnc43)[C@H](O)[C@@H]2O)CC1
- Kd [1]: 2500 nM
- IC50 [2]: 3200 nM

Compound: CCOC(=O)N1CCN(S(=O)(=O)c2ccc3c4c(cccc24)C(=O)N3)CC1
- inhibition activity call (active/inactive) (Salmonella enterica): Active

Compound: Cc1cccc(NC(=O)CN2C(=O)N/C(=C\c3cccn3-c3ccccc3)C2=O)c1
- inhibition activity call (active/inactive) (Salmonella enterica): Active

Compound: O=C(c1ccccc1F)N1CCN(c2ccc([N+](=O)[O-])c3ncccc23)CC1
- inhibition activity call (active/inactive) (Salmonella enterica): Active

Compound: O=C(NCc1n[nH]c(=O)c2ccccc12)c1cccc(Cl)c1
- IC50 [3]: 10400 nM
- inhibition activity call (active/inactive) (Salmonella enterica): Active

Compound: CC1(C)Nc2nc(N)[nH]c(=O)c2N=C1C(=O)NCCN1CC[C@@H](SC[C@H]2O[C@@H](n3cnc4c(N)ncnc43)[C@H](O)[C@@H]2O)C[C@@H]1C(=O)O
- Kd [1]: 190 nM
- IC50 [2]: 380 nM

Compound: Nc1nc2[nH]c(SCc3ccccc3F)nc2c(=O)[nH]1
- Kd [4]: 450 nM
- IC50 [5]: 25000 nM

Compound: Cc1ccc2c(C)c(C(=O)NCc3ccc(S(N)(=O)=O)cc3)oc2c1
- inhibition activity call (active/inactive) (Salmonella enterica): Active
- inhibition (Escherichia coli): Active

Source: ChEMBL document CHEMBL5136971, “Virtual screening and in vitro validation identifies the first reported inhibitors of Salmonella enterica HPPK” (RSC Med Chem, 2021)
